Assay results: patent US7166744B2, “Retinoid derivatives and methods for producing said compounds and anti-cancer pharmaceutical composition comprising said compounds” (Chebigen Co., Ltd., priority 2001, dated 2007)

Legend:
Format in all cases: cell-based
MMP-1 mRNA expression = test: RT-PCR of MMP-1 mRNA in HCT116; conditions: HCT116, 1 μM; for inhibition of MMP-1 mRNA expression: 36 hours
Method: Previously, it was shown that the synthetic retinoid derivatives inhibit the transcriptional activity of AP-1. Also, it is well known that MMP (matrix metalloproteinase), a main target gene of AP-1 is involved in metastasis of cancer cells. Therefore, the inhibitive effects of the retinoid derivatives on metastasis of cancer was examined by RT-PCR analysis. Colon cancer HCT116 cells were treated with 1 μM retinoid for 36 hours. RNA was isolated from the cells and mRNA expression levels of MMP-1, -2 and -3 were analyzed by RT-PCR. […] As the control, GAPDH was used and it was confirmed that its expression was not affected by retinoid. Meanwhile, the expression level of MMP-3 was affected weakly by KCBG40, intermediately by KCBG41 but strongly by KCBG10 (FIG. 9).
RNA was isolated from the cells and mRNA expression levels of MMP-1, -2 and -3 were analyzed by RT-PCR (FIG. 14).

RXRγ = molecular target: T1, RXRγ (Homo sapiens, UniProt P48443); test: CAT reporter assay, RXRγ; conditions: 1 μM, control = 1.0, RA = 9-cis RA; for expression level of CAT enzyme, RXRγ −: column '−'
T1 construct: expressed in transfected cells
T1 sequence (P48443 1-463): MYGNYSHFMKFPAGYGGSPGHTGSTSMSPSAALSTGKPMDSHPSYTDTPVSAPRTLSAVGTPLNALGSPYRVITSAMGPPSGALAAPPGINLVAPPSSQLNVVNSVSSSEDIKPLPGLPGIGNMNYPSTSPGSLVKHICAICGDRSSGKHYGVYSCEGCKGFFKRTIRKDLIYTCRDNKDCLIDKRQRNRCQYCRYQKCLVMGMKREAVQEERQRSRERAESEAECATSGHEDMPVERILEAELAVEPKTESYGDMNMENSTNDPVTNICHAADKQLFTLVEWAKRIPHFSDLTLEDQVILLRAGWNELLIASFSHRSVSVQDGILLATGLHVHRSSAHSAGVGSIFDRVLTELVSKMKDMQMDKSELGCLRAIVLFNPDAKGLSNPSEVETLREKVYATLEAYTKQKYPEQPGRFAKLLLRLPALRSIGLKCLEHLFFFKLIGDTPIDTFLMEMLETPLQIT
Text: (§1) As the reporter gene, chloramphenicol acetyltransferase (CAT) with a transcription control site reactive to respective receptors was used.

RXRβ = molecular target: T2, RXRβ (Homo sapiens, UniProt P28702); test: CAT reporter assay, RXRβ; conditions: 1 μM, control = 1.0, RA = 9-cis RA; for expression level of CAT enzyme, RXRβ −: column '−'
T2 construct: expressed in transfected cells
T2 sequence (P28702 1-533): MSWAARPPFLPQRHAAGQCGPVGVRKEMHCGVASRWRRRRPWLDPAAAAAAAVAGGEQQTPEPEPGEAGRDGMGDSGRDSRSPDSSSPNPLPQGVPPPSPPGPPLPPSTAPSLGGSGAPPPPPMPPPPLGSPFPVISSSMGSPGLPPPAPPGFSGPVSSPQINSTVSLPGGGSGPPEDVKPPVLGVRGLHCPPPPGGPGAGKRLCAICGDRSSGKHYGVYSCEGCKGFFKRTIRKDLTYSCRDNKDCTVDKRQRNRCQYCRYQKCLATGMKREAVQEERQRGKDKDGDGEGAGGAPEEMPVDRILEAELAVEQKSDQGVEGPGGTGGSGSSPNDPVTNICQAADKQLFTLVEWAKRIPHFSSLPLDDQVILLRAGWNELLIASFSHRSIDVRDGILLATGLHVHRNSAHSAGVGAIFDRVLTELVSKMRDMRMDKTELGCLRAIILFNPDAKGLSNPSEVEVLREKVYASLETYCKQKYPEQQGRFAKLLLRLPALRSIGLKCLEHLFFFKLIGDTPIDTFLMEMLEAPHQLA
Text: as §1

RARα = molecular target: T3, RARα (Homo sapiens, UniProt P10276); test: CAT reporter assay, RARα; conditions: 1 μM, control = 1.0; for expression level of CAT enzyme, RARα −: column '−'
T3 construct: expressed in transfected cells
T3 sequence (P10276 1-462): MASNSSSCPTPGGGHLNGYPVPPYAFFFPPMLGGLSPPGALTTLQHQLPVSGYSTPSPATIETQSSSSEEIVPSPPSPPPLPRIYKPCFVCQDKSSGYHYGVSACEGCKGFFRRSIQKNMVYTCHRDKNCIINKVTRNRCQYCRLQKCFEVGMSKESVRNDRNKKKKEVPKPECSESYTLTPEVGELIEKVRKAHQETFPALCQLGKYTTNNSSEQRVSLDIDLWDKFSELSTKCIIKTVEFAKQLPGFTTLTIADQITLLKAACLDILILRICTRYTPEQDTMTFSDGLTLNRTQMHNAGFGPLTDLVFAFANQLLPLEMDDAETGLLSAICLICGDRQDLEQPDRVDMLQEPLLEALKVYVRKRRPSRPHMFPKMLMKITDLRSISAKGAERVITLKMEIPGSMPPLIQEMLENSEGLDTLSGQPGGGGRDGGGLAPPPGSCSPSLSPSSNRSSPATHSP
Text: In order to confirm the effect of KCBG60 according to the present invention on retinoid receptor activity, cells were cotransfected with expression vectors of receptor subfamilies and reporter genes. As the reporter gene, chloramphenicol acetyltransferase (CAT) with a transcription control site reactive to respective receptors was used.

2774 ovary cancer cells = test: MTT proliferation assay, 2774; conditions: 48 hours, ovarian cancer
Method: (§2) The effects of test compounds on proliferation of various cancer cells was examined by 3-(4,5-dimethylthiazol-2-yl)-2,5-diphenyltetrazolium bromide (MTT, Sigma) assay in a dose dependent manner. In the MTT assay, colon, liver, cervix, ovary, and breast cancer cell lines were treated with test compounds at various concentrations. Living cancer cells reduce MTT to dark blue MTT formazan that would be measured by absorbance.
(§3) Colon cancer cells, HCT116, DLD-1 and HT29, cervix cancer cells, HeLa and CaSki, ovary cancer cells, SKOV-3, 2774 and OVCAR-3, liver cancer cells, SK-Hep-1, PLCPRF5 and HepG2, and breast cancer cells, ZR75-1 and MDA-MB 231 were seeded at an initial density of 3000 cells per well in 96-well plates. After attachment of cells to the walls of the wells, the medium containing fresh retinoid was treated with various concentrations (0.5 μM, 1 μM, 2.5 μM, 5 μM, 10 μM) for 48 hours. 50 μl of MTT solution (2 mg/ml in PBS) was added to cell culture media. The reaction micture was incubated at 37° C. in a 5% CO2 atmosphere for 4 hours. The supernatant was removed and 150 μl of DMSO was added. The optical density was measured spectrophotometrically at 550 nm. […] For other retinoid derivatives according to the present invention, absorbances were measured by this procedure and IC50 values, concentrations required for 50% growth inhibition, were determined.

[1] = test system: CaSki cervix cancer cells; test: MTT proliferation assay, CaSki; conditions: 48 hours, uterine cancer
Method: as §2, §3

IC50 (2774 ovary cancer cells)	IC50 [1]	IC50 ([1]; Homo sapiens, Ca-Ski)	Compound	MMP-1 mRNA reduction compared to ATRA and phenyl butylate (MMP-1 mRNA expression; 24 hours)	reduction of MMP-1 mRNA level (MMP-1 mRNA expression; 24 hours)	expression level of CAT enzyme, RXRγ + (RXRγ)	expression level of CAT enzyme, RXRγ − (RXRγ)	expression level of CAT enzyme, RXRβ + (RXRβ)	expression level of CAT enzyme, RXRβ − (RXRβ)	expression level of CAT enzyme, RARα + (RARα)	expression level of CAT enzyme, RARα − (RARα)	inhibition of MMP-1 mRNA expression (MMP-1 mRNA expression)
8 µM	0.5 µM		CCCC(=O)Oc1cc(O)ccc1NC(=O)/C=C(C)/C=C/C=C(C)/C=C/C1=C(C)CCCC1(C)C [KCBG10, 2.2-[(2E,4E,6E,8E)-3,7-Dimethyl-9-(2,6,6-trimethylcyclohex-1-enyl)-nona-2,4,6,8-tetraenoylamino]-5-hydroxyphenylbutanoate]									weakly
> 100 µM		20 µM	CC1=C(/C=C/C(C)=C/C=C/C(C)=C/C(=O)O)C(C)(C)CCC1 [ATRA, All-trans-retinoic acid, reference compound]							66.7	17.3	
2.5 µM	3 µM		CCCC(=O)Nc1cc(NC(=O)/C=C(C)/C=C/C=C(C)/C=C/C2=C(C)CCCC2(C)C)ccc1O [KCBG41, (2E,4E,6E,8E)-[3,7-dimethyl-9-(2,6,6-trimethylcyclohex-1-enyl)-nona-2,4,6,8-tetraenoylamino]-(3-butyrylamino-4-hydroxy)phenylamide]									strongly

More lines, now with the values behind:

Compound	IC50 (2774 ovary cancer cells)	IC50 [1]	IC50 ([1]; Homo sapiens, Ca-Ski)	MMP-1 mRNA reduction compared to ATRA and phenyl butylate (MMP-1 mRNA expression; 24 hours)	reduction of MMP-1 mRNA level (MMP-1 mRNA expression; 24 hours)	expression level of CAT enzyme, RXRγ + (RXRγ)	expression level of CAT enzyme, RXRγ − (RXRγ)	expression level of CAT enzyme, RXRβ + (RXRβ)	expression level of CAT enzyme, RXRβ − (RXRβ)	expression level of CAT enzyme, RARα + (RARα)	expression level of CAT enzyme, RARα − (RARα)	inhibition of MMP-1 mRNA expression (MMP-1 mRNA expression)
CCCC(=O)Oc1ccc(NC(=O)/C=C(C)/C=C/C=C(C)/C=C/C2=C(C)CCCC2(C)C)cc1 [KCBG60]				two times increased	about 50%	1.4	1.2	1.1	0.5	1.1	0.7	
CC1=C(/C=C/C(C)=C/C=C/C(C)=C/C(=O)Nc2ccc(O)cc2)C(C)(C)CCC1 [HPR, (2E,4E,6E,8E)-[3,7-dimethyl-9-(2,6,6-trimethylcyclohex-1-enyl)-nona-2,4,6,8-tetraenoylamino]-4-hydroxyphenylamide]	30 µM	2 µM				1.5	1.3	1.4	0.6	30.4	9.9	affected very little
phenyl butylate						1.2	1.1	1.1	0.5	0.8	0.7	
